In ChEMBL document CHEMBL1201862, “PubChem BioAssay data set” (2004):
Active and inactive are the calls of the source.

Assays:
[1] = target: T1, Replicative DNA helicase DnaB (Mycobacterium tuberculosis, UniProt P9WMR3); assay: DnaB intein splicing inhibitors, dose response, biochemical, cell-free fluorescence (AID 449749); format: functional
T1 sequence (P9WMR3 whole entry): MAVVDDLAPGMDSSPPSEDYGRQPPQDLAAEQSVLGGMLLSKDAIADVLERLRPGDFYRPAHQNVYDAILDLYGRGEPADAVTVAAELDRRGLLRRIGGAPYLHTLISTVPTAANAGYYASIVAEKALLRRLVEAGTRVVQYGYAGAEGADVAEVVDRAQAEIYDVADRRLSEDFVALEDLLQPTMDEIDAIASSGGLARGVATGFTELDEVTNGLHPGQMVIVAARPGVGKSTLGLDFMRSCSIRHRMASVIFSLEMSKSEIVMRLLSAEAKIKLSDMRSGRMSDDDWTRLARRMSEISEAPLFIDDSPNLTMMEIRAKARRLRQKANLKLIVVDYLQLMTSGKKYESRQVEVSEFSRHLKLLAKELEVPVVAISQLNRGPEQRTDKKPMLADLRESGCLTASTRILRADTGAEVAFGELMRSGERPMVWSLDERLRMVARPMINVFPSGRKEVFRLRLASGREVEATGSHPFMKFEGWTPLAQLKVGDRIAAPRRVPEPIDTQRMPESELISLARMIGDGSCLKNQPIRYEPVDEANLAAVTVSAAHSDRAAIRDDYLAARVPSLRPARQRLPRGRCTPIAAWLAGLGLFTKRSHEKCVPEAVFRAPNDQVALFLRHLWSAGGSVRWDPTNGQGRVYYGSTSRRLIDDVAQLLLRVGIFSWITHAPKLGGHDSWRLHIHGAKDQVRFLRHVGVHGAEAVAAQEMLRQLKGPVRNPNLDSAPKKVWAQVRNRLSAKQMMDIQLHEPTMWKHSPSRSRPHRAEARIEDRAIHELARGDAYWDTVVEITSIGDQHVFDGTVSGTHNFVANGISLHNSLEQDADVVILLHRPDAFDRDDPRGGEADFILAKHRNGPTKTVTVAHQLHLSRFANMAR

[2] = target: T2, G-protein coupled receptor 35 (Homo sapiens, UniProt Q9HC97); assay: SAR Analysis for the identification of Selective Antagonists of ERK1/2 Activity in GPR35-Overexpressing U2OS Cells. [Related pubchem assays: 2079, 2058 ]; format: functional, cell-based
[3] = target: Tyrosine-protein phosphatase non-receptor type 12 (Homo sapiens, UniProt Q05209); assay: SAR Selectivity Analysis of small molecule inhibitors of PEST using pCAP in a fluorescence assay. [Related pubchem assays (depositor defined):AID1779, AID1784, AID2135]; format: functional
[4] = target: T3, Tyrosine-protein phosphatase non-receptor type 22 (Homo sapiens, UniProt Q9Y2R2); assay: inhibition of lymphoid tyrosine phosphatase LYP – biochemical, pCAP fluorogenic substrate, fluorescence, set 3, SAR follow-up (AID 449727); format: functional
T3 sequence (Q9Y2R2 whole entry): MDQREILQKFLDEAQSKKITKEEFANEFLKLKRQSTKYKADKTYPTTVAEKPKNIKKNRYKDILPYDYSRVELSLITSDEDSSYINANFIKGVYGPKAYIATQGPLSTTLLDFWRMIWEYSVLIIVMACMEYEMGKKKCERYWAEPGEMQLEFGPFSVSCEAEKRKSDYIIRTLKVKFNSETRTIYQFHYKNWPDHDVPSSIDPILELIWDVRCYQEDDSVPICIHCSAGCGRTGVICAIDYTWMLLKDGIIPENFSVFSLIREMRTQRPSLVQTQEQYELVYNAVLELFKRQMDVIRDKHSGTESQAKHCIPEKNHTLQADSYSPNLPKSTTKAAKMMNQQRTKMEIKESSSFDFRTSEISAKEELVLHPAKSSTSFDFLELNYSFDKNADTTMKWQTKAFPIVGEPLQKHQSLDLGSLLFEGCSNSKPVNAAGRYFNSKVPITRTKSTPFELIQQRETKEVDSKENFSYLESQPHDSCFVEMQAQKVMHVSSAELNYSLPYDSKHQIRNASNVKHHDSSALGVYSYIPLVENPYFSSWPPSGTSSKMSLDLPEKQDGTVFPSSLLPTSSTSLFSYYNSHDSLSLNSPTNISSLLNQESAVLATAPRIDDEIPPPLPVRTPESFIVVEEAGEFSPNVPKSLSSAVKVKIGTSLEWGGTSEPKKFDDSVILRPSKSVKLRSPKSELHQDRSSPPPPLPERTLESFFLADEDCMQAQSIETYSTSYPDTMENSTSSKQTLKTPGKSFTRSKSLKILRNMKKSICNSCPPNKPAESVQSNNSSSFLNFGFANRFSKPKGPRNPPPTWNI

Protein RecA = target: T4, Protein RecA (Mycobacterium tuberculosis, UniProt P9WHJ3); assay: Fluorescence Cell-Free Homogeneous Dose Retest to Identify Inhibitors of RecA-Intein Splicing Activity. [Related pubchem assays (depositor defined):AID2097, AID2223, AID489010, AID492950]; format: functional
T4 sequence (P9WHJ3 whole entry): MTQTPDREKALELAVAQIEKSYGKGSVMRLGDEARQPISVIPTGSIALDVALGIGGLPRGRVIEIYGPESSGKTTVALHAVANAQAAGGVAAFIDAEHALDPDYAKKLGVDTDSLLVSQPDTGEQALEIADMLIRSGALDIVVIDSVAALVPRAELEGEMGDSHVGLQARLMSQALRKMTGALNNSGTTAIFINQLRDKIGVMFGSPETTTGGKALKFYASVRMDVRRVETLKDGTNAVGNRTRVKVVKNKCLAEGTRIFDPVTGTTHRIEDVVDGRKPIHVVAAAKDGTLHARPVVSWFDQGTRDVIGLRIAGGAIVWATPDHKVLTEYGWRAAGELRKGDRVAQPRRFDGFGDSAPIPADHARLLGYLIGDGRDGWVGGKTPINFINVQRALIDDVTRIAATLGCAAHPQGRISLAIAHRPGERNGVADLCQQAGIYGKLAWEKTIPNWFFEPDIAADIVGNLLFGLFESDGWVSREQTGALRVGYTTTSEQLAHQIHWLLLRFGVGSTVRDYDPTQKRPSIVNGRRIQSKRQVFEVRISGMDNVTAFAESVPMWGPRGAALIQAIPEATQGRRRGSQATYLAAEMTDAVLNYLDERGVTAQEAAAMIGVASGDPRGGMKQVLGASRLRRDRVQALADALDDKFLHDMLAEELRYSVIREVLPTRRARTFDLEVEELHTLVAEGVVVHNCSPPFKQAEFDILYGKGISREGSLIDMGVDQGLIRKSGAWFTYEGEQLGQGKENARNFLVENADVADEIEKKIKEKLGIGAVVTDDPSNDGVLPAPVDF

[5] = target: T3, Tyrosine-protein phosphatase non-receptor type 22; assay: SAR LYP1 Fluorescent Assay using OMFP substrate for In Vitro dose response studies - Set 3. [Related pubchem assays (depositor defined):AID1779, AID1784, AID2140, AID2686]; format: functional
[6] = target: T2, G-protein coupled receptor 35; assay: inhibition of zaprinast-stimulated GPR35 beta-arrestin translocation – imaging, U2OS, beta-arrestin-GFP, zaprinast agonist, primary screen (AID 2058); format: functional;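 also: antagonist potency meaning inhibition of agonist-induced arrestin redistribution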
[7] = target: T5, G-protein coupled receptor 55 (Homo sapiens, UniProt Q9Y2T6); assay: blockers of GPR55 signalling, imaged – imaging, image-based, counter-screen for GPR35 antagonist project, SAR follow-up (AID 2397); format: functional
Coagulation factor XII = Coagulation factor XII (Homo sapiens, UniProt P00748); format: functional;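 also: activated factor XIIa alpha cleaving a fluorogenic AMC peptide substrate; inhibitor potency from loss of enzyme activity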
[8] = target: T6, Runt-related transcription factor 1/Core-binding factor subunit beta (Homo sapiens, UniProt Q01196+Q13951); assay: disruptors of Runt domain/CBFb-SMMHC interaction – biochemical, FRET, Cerulean-Runt, Venus-CBFb-SMMHC, uHTS, […] (AID 1434); format: protein assay
[9] = target: T6, Runt-related transcription factor 1/Core-binding factor subunit beta; assay: Runt domain/CBFb-SMMHC interaction disruptors – biochemical, TR-FRET (AID 1438); format: protein assay
H9c2 = assay: cells; format: functional, cell-based; conditions: Rattus norvegicus, H9c2, Myocardium
[10] = target: Dual specificity protein phosphatase 3 (Homo sapiens, UniProt P51452); assay: SAR VHR1 Fluorescent Assay for In Vitro dose response studies Set 2. [Related pubchem assays (depositor defined):AID1654, AID1661, AID1878]; format: functional
[11] = target: T7, Tyrosine-protein phosphatase non-receptor type 7 (Homo sapiens, UniProt P35236); assay: SAR analysis of chemical inhibitors of HePTP using a Fluorescent assay - Set 2. [Related pubchem assays (depositor defined):AID1059, AID1077, AID1661, AID2085, AID521]; format: functional
T7 sequence (P35236 whole entry): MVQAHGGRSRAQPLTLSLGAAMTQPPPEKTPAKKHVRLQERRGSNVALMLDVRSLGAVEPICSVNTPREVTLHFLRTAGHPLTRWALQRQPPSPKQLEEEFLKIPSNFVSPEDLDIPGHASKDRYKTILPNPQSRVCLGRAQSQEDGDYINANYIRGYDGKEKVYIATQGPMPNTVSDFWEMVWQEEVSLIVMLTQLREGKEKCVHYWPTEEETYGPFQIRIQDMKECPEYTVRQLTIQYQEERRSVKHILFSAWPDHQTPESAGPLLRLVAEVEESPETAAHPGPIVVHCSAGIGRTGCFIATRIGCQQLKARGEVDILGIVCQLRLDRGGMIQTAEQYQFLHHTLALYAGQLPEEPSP

[12] = target: T8, Heat shock factor protein 1 (Mus musculus, UniProt P38532); assay: enhancement of HSF1-driven luciferase signal – cell-based, NIH3T3, luminescence, dose retest, confirmation (AID 435004); format: functional;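 also: stress induced by proteasome inhibitor MG132 added 30 min after compound; luciferase reporter driven by HSF1 response element in NIH3T3 cells; actives raise luminescence as potentiators of the MG132 stress response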
T8 sequence (P38532 whole entry): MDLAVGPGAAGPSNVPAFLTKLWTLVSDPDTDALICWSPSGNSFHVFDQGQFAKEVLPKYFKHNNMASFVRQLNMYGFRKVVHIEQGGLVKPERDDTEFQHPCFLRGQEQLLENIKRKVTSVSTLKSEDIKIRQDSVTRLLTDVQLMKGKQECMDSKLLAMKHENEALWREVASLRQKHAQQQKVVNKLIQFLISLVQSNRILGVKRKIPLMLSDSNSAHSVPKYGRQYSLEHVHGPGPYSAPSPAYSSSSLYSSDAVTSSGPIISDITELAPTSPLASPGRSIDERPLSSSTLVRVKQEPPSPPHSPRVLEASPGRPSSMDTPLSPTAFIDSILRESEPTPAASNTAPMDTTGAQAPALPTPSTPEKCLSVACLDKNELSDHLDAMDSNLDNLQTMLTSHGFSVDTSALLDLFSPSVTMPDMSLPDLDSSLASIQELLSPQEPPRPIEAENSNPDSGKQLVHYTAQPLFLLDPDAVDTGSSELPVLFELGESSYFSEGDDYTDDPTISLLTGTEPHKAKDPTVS

[13] = target: E3 ubiquitin-protein ligase Mdm2 (Homo sapiens, UniProt Q00987); assay: MDM2-luc reporter signal enhancers, multi-concentration potency testing, MDM2 ubiquitin-protein ligase inhibitor program, whole-cell format, luminescence detection, 384-well microplate (AID 1394); format: functional;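 also: MDM2 E3 inhibitors raise luminescence so EC50 is for signal enhancement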
[14] = target: T9, Polyadenylate-binding protein 1 (Homo sapiens, UniProt P11940); assay: MLLE domain peptide-binding blockers, IC50 – biochemical, fluorescence polarization, FITC-PAM2 peptide, dose response (AID 602259); format: functional; conditions: read-out: IC50_Mean
[15] = target: T9, Polyadenylate-binding protein 1; assay: MLLE binding blockers, Cy5 peptide tracer – biochemical, fluorescence polarization, Cy5-PAM2 peptide, secondary, miRNA deadenylation inhibitor project, dose response (AID 602260); format: functional; conditions: read-out: IC50_Mean
[16] = target: Microphthalmia-associated transcription factor (Homo sapiens, UniProt O75030); assay: reducers of TRPM1 reporter luminescence, concentration series – cell-based, SK-MEL-5, cherry-picked, set 3, MITF inhibitor project, dose response (AID 493073); format: functional;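 also: SK-MEL-5 melanoma cells with luciferase driven by the MITF target TRPM1 promoter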
[17] = HEK-293T viability loss after treatment – luminescence, T-cell screen hits, cytotoxicity control for TCR NF-kB inhibitor project, dose response (AID 489026); format: functional, cell-based;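 also: cells exposed to compound about 14 hours before the viability readout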
[18] = NIH3T3 cell viability loss – ATP luminescence, mouse fibroblasts, counter-screen, dose response (AID 2010); format: functional, cell-based;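 also: cells exposed to compound for about 90 hours before reading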
[19] = target: T8, Heat shock factor protein 1; assay: decrease of HSF1-responsive luciferase luminescence – cell-based, NIH3T3, dose retest, confirmation (AID 2382); format: functional;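 also: NIH3T3 fibroblasts with HSF1-driven luciferase reporter stressed by proteasome inhibitor MG132; luminescence from HSF1-driven luciferase expression after 8 hours of MG132 stress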
[20] = Trypanosoma cruzi growth suppression in host cells – NIH3T3 host cells, beta-gal luminescence, confirmation (AID 2044); format: functional, cell-based;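 also: intracellular parasites grown in NIH/3T3 mouse fibroblasts as host cells; luminescent beta-galactosidase reporter signal from transgenic T. cruzi replicating inside host cells; inhibitors lower the luminescence signal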
[21] = target: T5, G-protein coupled receptor 55; assay: selective activators of receptor GPR55 – imaging, U2OS cells, beta-arrestin-GFP redistribution, primary screen (AID 1961); format: functional

T5 sequence (Q9Y2T6 whole entry): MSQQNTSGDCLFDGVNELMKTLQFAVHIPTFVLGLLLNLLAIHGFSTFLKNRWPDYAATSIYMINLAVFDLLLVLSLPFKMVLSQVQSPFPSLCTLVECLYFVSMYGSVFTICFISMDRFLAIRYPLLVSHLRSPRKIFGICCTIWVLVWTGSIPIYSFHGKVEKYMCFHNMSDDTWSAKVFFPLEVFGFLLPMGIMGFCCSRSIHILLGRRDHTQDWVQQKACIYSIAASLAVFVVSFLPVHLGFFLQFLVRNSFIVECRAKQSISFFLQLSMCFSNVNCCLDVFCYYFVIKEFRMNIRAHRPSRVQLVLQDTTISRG
Chain of Dual specificity protein phosphatase 3 (P51452 whole entry): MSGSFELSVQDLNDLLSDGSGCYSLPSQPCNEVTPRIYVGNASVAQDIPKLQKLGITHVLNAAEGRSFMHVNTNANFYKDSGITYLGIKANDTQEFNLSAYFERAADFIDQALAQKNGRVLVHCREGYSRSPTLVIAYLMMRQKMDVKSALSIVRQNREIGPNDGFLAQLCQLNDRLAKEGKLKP
T2 sequence (Q9HC97 whole entry): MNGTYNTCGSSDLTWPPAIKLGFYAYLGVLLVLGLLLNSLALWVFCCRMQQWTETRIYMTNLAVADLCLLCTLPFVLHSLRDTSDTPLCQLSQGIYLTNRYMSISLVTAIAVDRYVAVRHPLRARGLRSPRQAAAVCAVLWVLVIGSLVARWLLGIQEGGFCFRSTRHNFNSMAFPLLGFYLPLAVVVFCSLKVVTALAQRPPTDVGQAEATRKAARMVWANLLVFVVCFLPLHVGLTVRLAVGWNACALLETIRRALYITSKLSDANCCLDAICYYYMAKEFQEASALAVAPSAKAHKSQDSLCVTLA
T6 sequence (Q01196 whole entry, the tested form may be a part): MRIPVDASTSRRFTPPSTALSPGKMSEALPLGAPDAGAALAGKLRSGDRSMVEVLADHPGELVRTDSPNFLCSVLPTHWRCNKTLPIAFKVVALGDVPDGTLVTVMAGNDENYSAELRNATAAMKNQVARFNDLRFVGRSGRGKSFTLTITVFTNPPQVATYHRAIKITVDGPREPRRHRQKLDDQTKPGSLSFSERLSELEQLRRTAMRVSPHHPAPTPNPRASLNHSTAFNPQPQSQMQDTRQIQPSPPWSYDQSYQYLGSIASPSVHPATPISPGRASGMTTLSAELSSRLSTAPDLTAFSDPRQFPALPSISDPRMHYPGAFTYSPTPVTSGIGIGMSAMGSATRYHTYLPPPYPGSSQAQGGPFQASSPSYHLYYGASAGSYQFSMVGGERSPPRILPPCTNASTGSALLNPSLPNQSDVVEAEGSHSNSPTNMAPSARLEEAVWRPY
T6 sequence (Q13951 whole entry, the tested form may be a part): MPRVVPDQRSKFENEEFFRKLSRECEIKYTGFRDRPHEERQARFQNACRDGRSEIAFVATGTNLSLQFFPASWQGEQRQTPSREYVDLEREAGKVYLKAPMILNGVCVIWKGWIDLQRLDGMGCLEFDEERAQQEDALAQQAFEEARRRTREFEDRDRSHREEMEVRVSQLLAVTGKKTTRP
Chain of Microphthalmia-associated transcription factor (O75030 whole entry): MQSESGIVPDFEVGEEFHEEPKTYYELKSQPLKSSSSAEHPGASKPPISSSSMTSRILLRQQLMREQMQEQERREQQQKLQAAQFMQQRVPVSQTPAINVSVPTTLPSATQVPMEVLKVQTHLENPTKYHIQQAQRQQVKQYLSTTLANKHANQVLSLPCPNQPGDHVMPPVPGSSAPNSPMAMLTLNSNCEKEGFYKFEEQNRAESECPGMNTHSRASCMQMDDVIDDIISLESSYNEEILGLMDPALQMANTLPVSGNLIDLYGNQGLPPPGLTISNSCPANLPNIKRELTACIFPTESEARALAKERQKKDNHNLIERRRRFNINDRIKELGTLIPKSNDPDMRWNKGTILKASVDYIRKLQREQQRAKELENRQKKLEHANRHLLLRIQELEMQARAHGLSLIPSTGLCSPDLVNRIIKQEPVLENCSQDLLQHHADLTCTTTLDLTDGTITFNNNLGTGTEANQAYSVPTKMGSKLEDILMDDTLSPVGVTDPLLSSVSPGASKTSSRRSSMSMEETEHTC
Chain of Coagulation factor XII (P00748 20-372 limits assumed): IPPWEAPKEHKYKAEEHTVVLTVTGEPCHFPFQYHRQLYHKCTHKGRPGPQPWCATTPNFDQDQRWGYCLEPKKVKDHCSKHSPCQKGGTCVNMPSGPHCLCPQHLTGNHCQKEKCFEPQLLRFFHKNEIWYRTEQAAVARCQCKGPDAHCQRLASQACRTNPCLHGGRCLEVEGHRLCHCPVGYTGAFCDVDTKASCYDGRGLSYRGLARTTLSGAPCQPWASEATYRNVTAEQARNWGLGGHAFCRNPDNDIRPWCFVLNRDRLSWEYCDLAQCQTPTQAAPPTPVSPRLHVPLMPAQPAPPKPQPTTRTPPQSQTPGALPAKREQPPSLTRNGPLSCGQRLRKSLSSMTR
Chain of Coagulation factor XII (P00748 373-615 limits assumed): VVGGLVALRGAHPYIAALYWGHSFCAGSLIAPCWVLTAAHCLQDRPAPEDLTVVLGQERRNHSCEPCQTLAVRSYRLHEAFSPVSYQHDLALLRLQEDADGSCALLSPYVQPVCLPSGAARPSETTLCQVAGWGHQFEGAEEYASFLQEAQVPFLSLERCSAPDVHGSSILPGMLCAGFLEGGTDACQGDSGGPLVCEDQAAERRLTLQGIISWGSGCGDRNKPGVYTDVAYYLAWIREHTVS
T9 sequence (P11940 whole entry, the tested form may be a part): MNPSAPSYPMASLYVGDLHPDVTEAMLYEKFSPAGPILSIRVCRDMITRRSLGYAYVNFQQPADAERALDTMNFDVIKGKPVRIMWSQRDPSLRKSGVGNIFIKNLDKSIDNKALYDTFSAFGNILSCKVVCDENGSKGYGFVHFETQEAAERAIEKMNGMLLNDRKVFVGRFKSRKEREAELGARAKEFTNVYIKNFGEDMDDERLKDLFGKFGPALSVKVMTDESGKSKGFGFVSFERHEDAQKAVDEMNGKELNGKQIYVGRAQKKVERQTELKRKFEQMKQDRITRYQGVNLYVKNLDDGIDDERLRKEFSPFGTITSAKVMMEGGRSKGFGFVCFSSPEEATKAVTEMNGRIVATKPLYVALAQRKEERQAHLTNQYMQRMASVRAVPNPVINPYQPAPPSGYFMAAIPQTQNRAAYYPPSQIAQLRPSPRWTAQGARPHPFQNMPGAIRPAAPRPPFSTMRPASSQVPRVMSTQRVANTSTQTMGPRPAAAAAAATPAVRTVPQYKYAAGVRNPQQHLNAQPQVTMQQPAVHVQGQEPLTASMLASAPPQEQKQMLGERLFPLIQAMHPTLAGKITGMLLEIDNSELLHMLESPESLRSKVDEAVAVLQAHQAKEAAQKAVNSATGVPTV
Chain of Tyrosine-protein phosphatase non-receptor type 12 (Q05209 whole entry): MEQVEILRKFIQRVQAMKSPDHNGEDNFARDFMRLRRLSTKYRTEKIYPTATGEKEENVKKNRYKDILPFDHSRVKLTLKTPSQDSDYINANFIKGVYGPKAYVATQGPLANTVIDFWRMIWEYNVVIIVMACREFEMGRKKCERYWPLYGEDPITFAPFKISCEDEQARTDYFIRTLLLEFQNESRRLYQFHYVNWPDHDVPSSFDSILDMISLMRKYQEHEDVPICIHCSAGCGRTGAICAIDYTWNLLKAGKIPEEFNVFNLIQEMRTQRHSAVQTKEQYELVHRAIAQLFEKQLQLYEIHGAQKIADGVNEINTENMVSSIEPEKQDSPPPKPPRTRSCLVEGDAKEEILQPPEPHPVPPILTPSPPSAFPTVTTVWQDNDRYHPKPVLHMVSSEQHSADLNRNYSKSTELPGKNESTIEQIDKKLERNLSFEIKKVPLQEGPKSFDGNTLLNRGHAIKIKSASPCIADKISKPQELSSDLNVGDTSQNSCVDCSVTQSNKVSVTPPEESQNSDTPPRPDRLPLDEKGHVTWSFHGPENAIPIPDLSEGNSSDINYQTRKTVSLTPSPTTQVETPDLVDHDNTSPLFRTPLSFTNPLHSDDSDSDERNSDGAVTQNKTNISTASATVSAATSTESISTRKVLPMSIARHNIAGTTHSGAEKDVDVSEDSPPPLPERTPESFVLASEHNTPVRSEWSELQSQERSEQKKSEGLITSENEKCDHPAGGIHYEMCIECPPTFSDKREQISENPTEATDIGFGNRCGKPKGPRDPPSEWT
Chain of E3 ubiquitin-protein ligase Mdm2 (Q00987 whole entry, the tested form may be a part): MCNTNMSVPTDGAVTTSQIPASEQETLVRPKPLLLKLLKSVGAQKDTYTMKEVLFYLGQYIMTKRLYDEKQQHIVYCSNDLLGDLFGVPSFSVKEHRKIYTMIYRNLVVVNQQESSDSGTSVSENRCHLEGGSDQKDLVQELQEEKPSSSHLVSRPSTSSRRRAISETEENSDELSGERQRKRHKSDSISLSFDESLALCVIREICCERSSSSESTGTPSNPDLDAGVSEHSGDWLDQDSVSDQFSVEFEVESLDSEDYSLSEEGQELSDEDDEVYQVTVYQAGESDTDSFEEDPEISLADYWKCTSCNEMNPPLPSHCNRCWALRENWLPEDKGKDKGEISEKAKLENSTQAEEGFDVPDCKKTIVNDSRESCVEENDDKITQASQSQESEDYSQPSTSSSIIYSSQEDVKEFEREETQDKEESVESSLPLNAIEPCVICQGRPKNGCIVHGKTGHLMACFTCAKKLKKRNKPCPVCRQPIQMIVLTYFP

## O=C(CCCN1C(=O)/C(=C/c2ccccc2)SC1=S)Nc1ccc(C(=O)O)c(O)c1
[1]
  AC50: 12.3 µM (active)
[2]
  IC50: 2.67 µM (active)
[3]
  IC50: 17.2 µM (active)
[4]
  IC50: 85 µM (active)
Protein RecA
  EC50: 15.4 µM (active)
[5]
  IC50: > 100 µM (inactive)
[6]
  IC50: < 0.5 µM (active)
[7]
  IC50: > 32 µM (inactive)

## COc1ccc(OC)c(/C=N/Nc2cc(C)nc(N3CCOCC3)n2)c1
Coagulation factor XII
  IC50: > 50 µM (inactive)

## CC1(C)CC(=O)C=C(NNC(=O)c2ccccc2O)C1
Coagulation factor XII
  IC50: > 50 µM (inactive)

## CC(C)c1cc(N2CCN(C(=O)c3ccco3)CC2)n2c(nc3ccccc32)c1C#N
[8]
  IC50: > 100 µM (inactive)
[9]
  IC50: > 100 µM (inactive)
H9c2
  IC50: 15.5 µM (active)

## Cc1ccc(-n2c(N)c(C(=O)N3CCCCC3)sc2=S)cc1
[10]
  IC50: 76.5 µM (active)
[11]
  IC50: > 100 µM (inactive)

## Cc1cc(C)nc(S/C=C/C(=O)c2ccccc2F)n1
[12]
  EC50: 14.7 µM (active)
[13]
  EC50: 1 µM (active)
[14]
  IC50: > 66 µM (inactive)
[15]
  IC50: > 66 µM (inactive)
[16]
  AC50: 5.37 µM (active)

## Nc1nc(-c2ccccc2)cc(N2CCCCC2)n1
[17]
  IC50: > 80 µM (inactive)

## NS(=O)(=O)c1ccc(NC(=S)N2CCN(c3ccc(Cl)c(Cl)c3)CC2)cc1
[10]
  IC50: > 100 µM (inactive)
[11]
  IC50: > 100 µM (inactive)

## COc1ccc(C(=O)/C=C/C(=O)N(CC(=O)NC2CCCCC2)Cc2ccc(F)cc2)c(O)c1
[18]
  EC50: > 60 µM (not active)
[19]
  EC50: 5.29 µM (active)
[20]
  EC50: 1.61 µM (active)
[21]
  EC50: > 32 µM (inactive)
[16]
  AC50: 5.45 µM (active)
